Type in all cases: in vivo
Assay [1] relates to ragweed (common ragweed, Ambrosia artemisiifolia). Briefly: Test C preemergence, ragweed. Conditions: 0 is no effect, 100 is complete control. The procedure, abridged: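 Steps: sow in loam soil blended with sand; treat soil preemergence by directed spray, or treat young plants (2–10 cm, one to two leaves) postemergence; hold in greenhouse 10 or 12 days; rate injury visually relative to untreated controls on a 0–100 scale.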

The subject of assay [2] is goosegrass (Eleusine indica). Nature of the assay: Test C postemergence, goosegrass. The conditions noted are these: for Goosegrass plant response rating: visual injury, 0 to 100 scale (0 no effect, 100 complete control). In short, it runs like this: (§1)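 Greenhouse pot test. Compounds in a non-phytotoxic solvent with surfactant were applied to a loam–sand soil mix either preemergence as a directed spray or postemergence to plants at the one- to two-leaf stage; 0–100 visual ratings followed after 10 or 12 days.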

A further assay concerns soybean (Glycine max). Briefly: Test C preemergence, soybean. Conditions: 0 is no effect, 100 is complete control. The procedure, abridged: as §1
In assay [3] the test system is pigweed, palmer (palmer amaranth, Amaranthus palmeri). Nature of the assay: Test C preemergence, palmer amaranth. The conditions noted are these: 0 is no effect, 100 is complete control. In short, it runs like this: as §1
Assay [4] has as its system oat, wild (wild oat, Avena fatua). Briefly: Test C preemergence, wild oat. The conditions noted are these: 0 is no effect, 100 is complete control. The procedure, abridged:
as §1

Assay [5] relates to ducksalad (Heteranthera limosa). Nature of the assay: Test D flooded paddy test, ducksalad. Further details: key: 0 = no effect, 100 = complete control. Conditions: 250 g ai/ha, Flood; applied to paddy water at 2-leaf stage; visual rating after 13 days; scale 0 (no effect) to 100 (complete control). The procedure, abridged:
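Test compounds applied directly to paddy water after pots were flooded to 3 cm above soil, with plants at 2-leaf stage; depth held throughout. Greenhouse for 13 days, then visual rating versus controls on 0–100 scale (0 no effect, 100 complete control); dash means no result.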

In assay [6] the test system is horseweed (Erigeron canadensis). Briefly: Test C postemergence, horseweed. Conditions: for Horseweed plant response rating: visual injury, 0 to 100 scale (0 no effect, 100 complete control). The procedure, abridged: as §1
In another assay the test system is corn (Zea mays). Briefly: Test C postemergence, corn. The conditions noted are these: for Corn plant response rating: visual injury, 0 to 100 scale (0 no effect, 100 complete control).
The mark [7] stands for this setting: 125 g ai/ha Postemergence, 0 is no effect, 100 is complete control.

For `Cc1cc(C)c(N(COC(=O)C(C)(C)C)S(=O)(=O)C(F)(F)F)cc1N1CCC(OCC2CC2(F)F)C1=O` (centres unmarked) [Compound 54], the entries for the “Plant response rating (0 to 100 scale), Ragweed” value (“Plant response rating … Ragweed” below) in assay [1] (31 g ai/ha Preemergence) and in assay [1] (125 g ai/ha Preemergence) were 0 and 60, respectively. Besides, the “Goosegrass plant response rating” value in assay [2] (31 g ai/ha Postemergence) is 60; in assay [2] (125 g ai/ha Postemergence), 90. The “Plant response rating (0 to 100 scale), Soybean” value (“Plant response rating … Soybean” for short) with soybean (Glycine max) (31 g ai/ha Preemergence) stood at 0; with soybean (Glycine max) (125 g ai/ha Preemergence), 30. Besides, the “Plant response rating (0 to 100 scale), Pigweed, Palmer” value (from here on “Plant response rating … Palmer”) in assay [3] (31 g ai/ha Preemergence) stood at 0; in assay [3] (125 g ai/ha Preemergence) it was 50. Besides, the “Plant response rating (0 to 100 scale), Oat, Wild” value (“Plant response rating … Wild” for short) in assay [4] (31 g ai/ha Preemergence) was determined as 0; in assay [4] (125 g ai/ha Preemergence), 80. Further, the “Plant response rating, Ducksalad” value in assay [5] is 90. Further, the “Horseweed plant response rating” value in assay [6] (31 g ai/ha Postemergence) was determined as 70; in assay [6] (125 g ai/ha Postemergence) it was 90. In addition, the “Corn plant response rating” value with corn (Zea mays) (31 g ai/ha Postemergence) is recorded as 0; in the assay with corn (Zea mays) (125 g ai/ha Postemergence), 80.
For the molecule `Cc1cc(C)c(N2CCC(OCC3CCC3(F)F)C2=O)cc1NS(=O)(=O)C(F)(F)F` (centres unmarked) [Compound 52], the “Plant response rating … Ragweed” value in assay [1] (31 g ai/ha Preemergence) came to 0; in assay [1] (125 g ai/ha Preemergence), 30. The “Goosegrass plant response rating” value in assay [2] (31 g ai/ha Postemergence) is recorded as 0; in assay [2] (125 g ai/ha Postemergence) it was 70. Further, the results for the “Plant response rating … Soybean” value in the assay with soybean (Glycine max) (31 g ai/ha Preemergence) and with soybean (Glycine max) (125 g ai/ha Preemergence) were 30 and 50, respectively. Besides, the results for the “Plant response rating … Palmer” value in assay [3] (31 g ai/ha Preemergence) and in assay [3] (125 g ai/ha Preemergence) were 70 and 100, respectively. The “Plant response rating … Wild” value in assay [4] (31 g ai/ha Preemergence) turned out to be 20; in assay [4] (125 g ai/ha Preemergence), 90. The “Plant response rating, Ducksalad” value in assay [5] was determined as 90. The “Horseweed plant response rating” value in assay [6] (31 g ai/ha Postemergence) was 80; in assay [6] (125 g ai/ha Postemergence) it was 90. The “Corn plant response rating” value was 0 with corn (Zea mays) (31 g ai/ha Postemergence) and 60 in the assay on corn (Zea mays) (125 g ai/ha Postemergence).
Consider `CO/N=C1\CCN(c2cc(NS(=O)(=O)C(F)(F)F)c(C)cc2C)C1=O` [Compound 9, 1,1,1-trifluoro-N-[5-[3-(methoxyimino)-2-oxo-1-pyrrolidinyl]-2,4-dimethylphenyl]methanesulfonamide], for which the “Plant response rating … Ragweed” value in assay [1] (31 g ai/ha Preemergence) came to 50; in assay [1] (125 g ai/ha Preemergence), 90. Also, the “Goosegrass plant response rating” value in assay [2] (31 g ai/ha Postemergence) worked out at 90. Further, the “Plant response rating (0 to 100 scale), Goosegrass” value in assay [2] (setting [7]) is listed as 90. The “Plant response rating … Soybean” value in the assay on soybean (Glycine max) (31 g ai/ha Preemergence) is recorded as 80; in the assay with soybean (Glycine max) (125 g ai/ha Preemergence), 100. Further, the “Plant response rating … Palmer” value in assay [3] (31 g ai/ha Preemergence) and in assay [3] (125 g ai/ha Preemergence) was 100 in each case. The “Plant response rating … Wild” value in assay [4] (31 g ai/ha Preemergence) is recorded as 90; in assay [4] (125 g ai/ha Preemergence), 100. Further, the “Plant response rating, Ducksalad” value in assay [5] was 95. In addition, the “Horseweed plant response rating” value in assay [6] (31 g ai/ha Postemergence) is recorded as 100. Moreover, in assay [6] (setting [7]), the “Plant response rating (0 to 100 scale), Horseweed” value was determined as 100. In addition, the “Corn plant response rating” value in the assay with corn (Zea mays) (31 g ai/ha Postemergence) was 90. In the assay with corn (Zea mays) (setting [7]), the “Plant response rating (0 to 100 scale), Corn” value was 90.
`Cc1c(NS(=O)(=O)C(F)(F)F)cc(N2CCC(OC3CC3)C2=O)c(C)c1C` (centres unmarked) [Compound 47]: the “Plant response rating … Ragweed” value in assay [1] (31 g ai/ha Preemergence) is 70; in assay [1] (125 g ai/ha Preemergence), 100. The “Goosegrass plant response rating” value in assay [2] (31 g ai/ha Postemergence) was found to be 50; in assay [2] (125 g ai/ha Postemergence), 90. Also, the entries for the “Plant response rating … Soybean” value in the assay on soybean (Glycine max) (31 g ai/ha Preemergence) and in the assay with soybean (Glycine max) (125 g ai/ha Preemergence) were 50 and 90, respectively. In addition, the “Plant response rating … Palmer” value in assay [3] (31 g ai/ha Preemergence) and in assay [3] (125 g ai/ha Preemergence) was 100 throughout. In addition, the “Plant response rating … Wild” value in assay [4] (31 g ai/ha Preemergence) amounted to 80; in assay [4] (125 g ai/ha Preemergence), 100. The “Plant response rating, Ducksalad” value in assay [5] was found to be 95. The “Horseweed plant response rating” value in assay [6] (125 g ai/ha Postemergence) is given as 100. The entries for the “Corn plant response rating” value in the assay on corn (Zea mays) (31 g ai/ha Postemergence) and in the assay on corn (Zea mays) (125 g ai/ha Postemergence) were 70 and 90, respectively.
With `Cc1c(N2CCC(OC3CCC3)C2=O)cc(N(C(=O)OCC(C)C)S(=O)(=O)C(F)(F)F)c(C)c1C` (centres unmarked) [Compound 48], the “Plant response rating … Ragweed” value in assay [1] (31 g ai/ha Preemergence) was determined as 20; in assay [1] (125 g ai/ha Preemergence), 90. Also, the “Goosegrass plant response rating” value in assay [2] (31 g ai/ha Postemergence) was 0; in assay [2] (125 g ai/ha Postemergence), 40. Moreover, the “Plant response rating … Soybean” value in the assay on soybean (Glycine max) (31 g ai/ha Preemergence) stood at 30; with soybean (Glycine max) (125 g ai/ha Preemergence), 70. The “Plant response rating … Palmer” value in assay [3] (31 g ai/ha Preemergence) and in assay [3] (125 g ai/ha Preemergence) was 100 throughout. For the same molecule, the entries for the “Plant response rating … Wild” value in assay [4] (31 g ai/ha Preemergence) and in assay [4] (125 g ai/ha Preemergence) were 50 and 80, respectively. For the same molecule, the “Plant response rating, Ducksalad” value in assay [5] is given as 95. Further, the results for the “Horseweed plant response rating” value in assay [6] (31 g ai/ha Postemergence) and in assay [6] (125 g ai/ha Postemergence) were 70 and 90, respectively. Also, the “Corn plant response rating” value with corn (Zea mays) (31 g ai/ha Postemergence) turned out to be 0; with corn (Zea mays) (125 g ai/ha Postemergence), 50.

Source of the values: US20240158348A1, “HERBICIDAL CYCLIC AMIDES N-SUBSTITUTED WITH A HALOALKYLSULFONYLANILIDE GROUP” (FMC Corporation, priority 2021, published 2024).
